Reference: ChEMBL document CHEMBL1201862, “PubChem BioAssay data set” (2004)
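Cultured in 96-well plates, cells were exposed to test compound for 48 hours across five concentrations. Abbreviation: GI50, concentration required for 50% inhibition of growth.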 Calls of active or inactive are those of the source. Cut-off read from the data, not from the text of the source: active = GI50 up to about 1.1 µM and inactive = higher.

Assays:
Test in all cases: NCI anticancer screen, dose series, 48 h
SK-MEL-28 = test system: SK-MEL-28
SF-539 = test system: SF-539
SW-620 = test system: SW-620
SK-MEL-5 = test system: SK-MEL-5
HCT-116 = test system: HCT-116
KM12 = test system: KM12
OVCAR-8 = test system: OVCAR-8
LOX IMVI = test system: LOX IMVI
MDA-MB-231 = test system: MDA-MB-231
NCI-H23 = test system: NCI-H23
HOP-92 = test system: HOP-92
SF-295 = test system: SF-295
COLO 205 = test system: COLO 205
OVCAR-3 = test system: OVCAR-3
K562 = test system: K562
HL-60 = test system: HL-60
OVCAR-5 = test system: OVCAR-5
Hs-578T = test system: Hs-578T
M14 = test system: M14
ACHN = test system: ACHN

| SMILES | GI50 (SK-MEL-28) | GI50 (SF-539) | GI50 (SW-620) | GI50 (SK-MEL-5) | GI50 (HCT-116) | GI50 (KM12) | GI50 (OVCAR-8) | GI50 (LOX IMVI) | GI50 (MDA-MB-231) | GI50 (NCI-H23) | GI50 (HOP-92) | GI50 (SF-295) | GI50 (COLO 205) | GI50 (OVCAR-3) | GI50 (K562) | GI50 (HL-60) | GI50 (OVCAR-5) | GI50 (Hs-578T) | GI50 (M14) | GI50 (ACHN) |
| --- | --- | --- | --- | --- | --- | --- | --- | --- | --- | --- | --- | --- | --- | --- | --- | --- | --- | --- | --- | --- |
| CCCCCN(CCCCC)CC(C)(C)C(O)c1ccc(OC)c2ccccc12 (stereo not given) | 10.5 µM (inactive) | 3.89 µM (inactive) | 10 µM (inactive) | 3.52 µM (inactive) | 12.9 µM (inactive) | 8.81 µM (inactive) | 10.5 µM (inactive) | 1.68 µM (inactive) | 13.8 µM (inactive) | 11.2 µM (inactive) | 2.53 µM (inactive) | 9.77 µM (inactive) | 6.85 µM (inactive) | 8.34 µM (inactive) | 3.01 µM (inactive) | 3.77 µM (inactive) | 11.9 µM (inactive) | 16.6 µM (inactive) | 1.4 µM (inactive) | 11.7 µM (inactive) |
| Cc1cc(NC(=O)NC(=O)c2ccccc2NC(=O)CN(C)C)ccc1Oc1ncc(Br)cn1 | 14.9 µM (inactive) | 1.56 µM (inactive) | 2.02 µM (inactive) | 1.45 µM (inactive) | 1.85 µM (inactive) | 1.36 µM (inactive) | 6.84 µM (inactive) | 9.98 µM (inactive) | 1.95 µM (inactive) | 4.67 µM (inactive) | 20.3 µM (inactive) | 0.748 µM (active) | 2.38 µM (inactive) | 1.04 µM (active) | 2 µM (inactive) | 0.658 µM (active) | 15.1 µM (inactive) | 1.6 µM (inactive) | 1.58 µM (inactive) | 18 µM (inactive) |
| CO/N=C1\CC(C)N2C(=O)C(C(C)C)NC(=O)C(NC(=O)c3c4nc5c(C(=O)NC6C(=O)NC(C(C)C)C(=O)N7C(C)CC(O)C7C(=O)N(C)CC(=O)N(C)C(C(C)C)C(=O)OC6C)ccc(C)c5oc-4c(C)c(=O)c3N)C(CO)OC(=O)C(C)N(C)C(=O)CN(C)C(=O)C12 (stereo not given) | 0.791 µM (active) | 0.348 µM (active) | 0.346 µM (active) | 0.174 µM (active) | 0.321 µM (active) | 0.877 µM (active) | 0.617 µM (active) | 0.156 µM (active) | 0.656 µM (active) | 1.43 µM (inactive) | 0.753 µM (active) | 1.13 µM (inactive) | 0.411 µM (active) | 1.42 µM (inactive) | 0.159 µM (active) | 0.555 µM (active) | 6.92 µM (inactive) | 0.906 µM (active) | 2.26 µM (inactive) | 1.26 µM (inactive) |
| Oc1ccc(Cn2c(-c3ccc(O)c(O)c3)nc3ccccc32)cc1O | 22.1 µM (inactive) | 7.45 µM (inactive) | 13.4 µM (inactive) | 14.7 µM (inactive) | 4.72 µM (inactive) | 13.5 µM (inactive) | 7.76 µM (inactive) | 11.8 µM (inactive) | 12.3 µM (inactive) | 23.3 µM (inactive) | 6.59 µM (inactive) | 23.6 µM (inactive) | 17.4 µM (inactive) | 14.4 µM (inactive) | 10.8 µM (inactive) | 16.8 µM (inactive) | 38.1 µM (inactive) | 5.79 µM (inactive) | 13.9 µM (inactive) | 10.9 µM (inactive) |
| C#CCn1c(=O)c(C)cn(/C(=C\C(=O)OCC)C(=O)OCC)c1=O | 2.03 µM (inactive) | 1.28 µM (inactive) | 1.67 µM (inactive) | 22.3 µM (inactive) | 3.34 µM (inactive) | 30.1 µM (inactive) | 3.05 µM (inactive) | 11.1 µM (inactive) | 10.1 µM (inactive) | 12.6 µM (inactive) | 2.12 µM (inactive) | 19.5 µM (inactive) | 1.17 µM (inactive) | 6.17 µM (inactive) | 2.63 µM (inactive) | 1.35 µM (inactive) | 7.06 µM (inactive) | 24.8 µM (inactive) | 4.19 µM (inactive) | 1.69 µM (inactive) |
| CCCCCCCCCCCCCC[S+](C)C | 2.58 µM (inactive) | 1.27 µM (inactive) | 2.33 µM (inactive) | 1.53 µM (inactive) | 2.51 µM (inactive) | 1.57 µM (inactive) | 1.77 µM (inactive) | 1.79 µM (inactive) | 2.23 µM (inactive) | 1.5 µM (inactive) | 1.18 µM (inactive) | 3.33 µM (inactive) | 1.62 µM (inactive) | 1.48 µM (inactive) | 1.4 µM (inactive) | 1.03 µM (active) | 2.88 µM (inactive) | 1.65 µM (inactive) | 1.83 µM (inactive) | 3.32 µM (inactive) |
| O=C(O)c1ccc(OCc2ccccc2)c(Cl)c1 | > 100 µM (inactive) | > 100 µM (inactive) | > 100 µM (inactive) | > 100 µM (inactive) | > 100 µM (inactive) | 30.3 µM (inactive) | > 100 µM (inactive) | > 100 µM (inactive) | > 100 µM (inactive) | > 100 µM (inactive) | > 100 µM (inactive) | > 100 µM (inactive) | > 100 µM (inactive) | > 100 µM (inactive) | > 100 µM (inactive) | > 100 µM (inactive) | > 100 µM (inactive) | > 100 µM (inactive) | > 100 µM (inactive) | > 100 µM (inactive) |
| CCN(CC)C1=Nc2ccccc2-n2ccnc2C1 | > 100 µM (inactive) | > 100 µM (inactive) | > 100 µM (inactive) | > 100 µM (inactive) | > 100 µM (inactive) | > 100 µM (inactive) | > 100 µM (inactive) | > 100 µM (inactive) | > 100 µM (inactive) | > 100 µM (inactive) | > 100 µM (inactive) | > 100 µM (inactive) | > 100 µM (inactive) | > 100 µM (inactive) | > 100 µM (inactive) | 78.2 µM (inactive) | > 100 µM (inactive) | > 100 µM (inactive) | > 100 µM (inactive) | > 100 µM (inactive) |
| CC(=O)N(C(C)=O)c1ncc(-n2nc(-c3ccccc3)cc2-c2ccccc2)c(-c2ccccc2)n1 | > 10 µM (inactive) | > 10 µM (inactive) | > 10 µM (inactive) | 4.12 µM (inactive) | 4.82 µM (inactive) | 6.17 µM (inactive) | > 10 µM (inactive) | 6.73 µM (inactive) | > 10 µM (inactive) | > 10 µM (inactive) | > 10 µM (inactive) | > 10 µM (inactive) | > 10 µM (inactive) | > 10 µM (inactive) | > 10 µM (inactive) | 7.83 µM (inactive) | > 10 µM (inactive) | > 10 µM (inactive) | > 10 µM (inactive) | > 10 µM (inactive) |
| CC(=O)OCCn1c(Cc2ccc([N+](=O)[O-])cc2)nn(C(C)=O)c1=O | > 100 µM (inactive) | > 100 µM (inactive) | > 100 µM (inactive) | > 100 µM (inactive) | > 100 µM (inactive) | > 100 µM (inactive) | > 100 µM (inactive) | > 100 µM (inactive) | > 100 µM (inactive) | > 100 µM (inactive) | > 100 µM (inactive) | > 100 µM (inactive) | > 100 µM (inactive) | > 100 µM (inactive) | > 100 µM (inactive) | > 100 µM (inactive) | > 100 µM (inactive) | > 100 µM (inactive) | > 100 µM (inactive) | > 100 µM (inactive) |
| CC/C(Cl)=N\OC(=O)Nc1ccccc1OC(F)(F)F | 20.1 µM (inactive) | 12.4 µM (inactive) | 2.52 µM (inactive) | 7.38 µM (inactive) | 7.08 µM (inactive) | 20.6 µM (inactive) | 17.7 µM (inactive) | 2.34 µM (inactive) | 17.1 µM (inactive) | 20.9 µM (inactive) | 2.39 µM (inactive) | 17.2 µM (inactive) | 2.1 µM (inactive) | 8.22 µM (inactive) | 1.95 µM (inactive) | 1.97 µM (inactive) | 20.1 µM (inactive) | 30.2 µM (inactive) | 6.9 µM (inactive) | 1.91 µM (inactive) |
| COC(=O)C1OC(O[C@H]2CC[C@]3(C)[C@H]4CC=C5[C@@H]6CC(C)(C)CC[C@]6(C(=O)OC6OCC(O)C(O)C6OC6OC(C)C(OC7OCC(O)C(O)C7O)C(OC7OCC(O)(CO)C7O)C6O)[C@H](O)C[C@@]5(C)[C@]4(C)CC[C@H]3C2(C)C)C(O)C(O)C1O (stereo not given in full) | 2.2 µM (inactive) | 31.6 µM (inactive) | 6.28 µM (inactive) | 4.65 µM (inactive) | 3.61 µM (inactive) | 2.88 µM (inactive) | 10.5 µM (inactive) | 7.64 µM (inactive) | 2.32 µM (inactive) | 1.8 µM (inactive) | 1.83 µM (inactive) | 4.43 µM (inactive) | 1.57 µM (inactive) | 8.63 µM (inactive) | 5.08 µM (inactive) | 2.35 µM (inactive) | 3.97 µM (inactive) | 11.9 µM (inactive) | 2.82 µM (inactive) | 3.31 µM (inactive) |
| O=C(CCc1ccc(O)c(O)c1)NCCc1ccccc1 | 85.5 µM (inactive) | > 47.8 µM (inactive) | > 100 µM (inactive) | 22.4 µM (inactive) | 26.4 µM (inactive) | 49.9 µM (inactive) | > 47.5 µM (inactive) | 63.2 µM (inactive) | 16.8 µM (inactive) | 35.2 µM (inactive) | 48.3 µM (inactive) | > 91.2 µM (inactive) | 23.1 µM (inactive) | 30.1 µM (inactive) | 16.5 µM (inactive) | 6.58 µM (inactive) | > 100 µM (inactive) | > 82.6 µM (inactive) | > 85.7 µM (inactive) | 22 µM (inactive) |
